Results on 3 compounds are retold here after US9283257B2, “Compositions comprising solanum tuberosum for lowering cytosolic NADH level to mimic calorie restriction” (Nox Technologies, Inc., priority 2009, dated 2016).

This assay deals with NADH levels in yeast. Nature of the assay: yeast NADH autofluorescence assay. Format: cell-based, Saccharomyces cerevisiae. The source says: Reduced forms of NAD(P)H show fluorescence with peaks of excitation and emission in the regions of 340 and 450 nm, respectively, that are used to monitor changes in cytosolic NAD(P)H levels. Because oxidized forms of these pyridine nucleotides have minimal fluorescence at this wavelength, a specific strain of Saccharomyces cerevisiae is used as the primary indicator and the assay is set up in a […] microtiter plate format. Fluorescence measurements are taken with an automated plate reader after 2 h of incubation in the presence of at least three log dilutions of the candidate calorie restriction mimic under investigation.
A 10 mL culture of S. cerevisiae (wild type-BY4741, available from American Type Culture Collection, Manassas, Va., ATCC Number 201388) Genotype/ORF/Gene MATa his3delta1 leu2delta0 met15delta0 ura3delta0. The yeast cells are grown overnight in Yeast Extract Peptone Dextrose (YEPD) liquid medium at 30 C with shaking. OD600 of the culture should be between 0.800 and 1.000 prior to assay usage. To remove unwanted autofluorescence, the medium components are removed by the following process.
Aliquots of the yeast culture are transferred to individual 1 mL micro-centrifuge tubes, and the yeast are pelleted in a bench-top centrifuge by spinning at 1000 RPM for 10 min. Excessive centrifugation speeds (over 1000 rpm) are not used because they could damage the yeast; and live yeast are required for the assay. The medium is decanted, and the yeast are resuspended in an equal volume of 1× phosphate buffered saline (137 mM NaCl, 2.7 mM KCl, 10 mM Na2HPO4, 1.76 mM KH2PO4, pH 7.4) and 7.5 mM glucose (PBSG). […] This preparation of yeast is used in the subsequent auto-fluorescence measurements at an optical density (bulk turbidity) at 600 nm between 0.8 and 1.0.
For fluorescence reading samples are added to a black 96 well cell culture plate. […] A single well of each compound or preparation 5 μL+100 μL of 1×PBSG should be added to account for the fluorescence due to additive.
Experiments are conducted using a Fluoroskan II (Titer-Tek) fluorescent plate reader, which is controlled by Genesis software v 2.0 and used in accordance with the manufacturer' instructions. […] These parameters include a) type—whether the measurement is a single measurement or series of measurement over a given time (kinetic), b) excitation and emission wavelengths (for NADH autofluorescence the excitation wavelength is 340 nm and the emission wavelength is 450 nm.) c) interval at which measurements should be taken (every 20 seconds is sufficient) d) duration of each reading which is set at 5 sec per well, and e) the duration of the measurement which is set to 1 hr. […]

Molecules are shown by their SMILES. Where two headings read alike, the source gives them in different places.

Regarding `O=CC[C@@H](O)[C@H](O)[C@H](O)CO` [2-Deoxyglucose, 2-deoxy-D-glucose], the EC50 (Saccharomyces cerevisiae; read-out: Concentration of known stimulators of NADH oxidation to increase NADH consumption by 50% in the yeast system) worked out at 2000 µM. The “cytosolic NADH levels” value (glucose of the yeast culture medium replaced with 2DG) was “reduced”. On to `O=C(O)CC(=O)C(=O)O` [Oxaloacetic acid], for which the EC50 (Saccharomyces cerevisiae, read-out: Concentration of known stimulators of NADH oxidation to increase NADH consumption by 50% in the yeast system) is 20 µM. `CC1(C)CCC2=C(O1)c1ccccc1C(=O)C2=O` [β-Lapachrone]: the EC50 (yeast system; read-out: Concentration of known stimulators of NADH oxidation to increase NADH consumption by 50% in the yeast system) is 40 µM.
